In patent US20230027066A1 (Urovant Sciences GmbH, priority 2019, published 2023):

Tested on: men and women with overactive bladder
Assay: Phase 3 study of vibegron 75 mg vs placebo and tolterodine ER 4 mg, 12 weeks, efficacy (voiding and urine volume diary)
Format: in vivo, human
Conditions: for Urgency 50% responders, Active - Placebo CMH Difference / Patients with at Least 50% Reduction in Urgency Episodes, Adjusted (%) / Patients with at Least 50% Reduction in Urgency Episodes, Adjusted n / Patients with at Least 50% Reduction in Urgency Episodes, Unadjusted (%) / Patients with at Least 50% Reduction in Urgency Episodes, Unadjusted n: Dry population; for Urgency Episodes, Week 12 CFB Mean: descriptive statistics; for Micturitions: LS Mean (95% CI): Table 32, week 12
Experimental: Enrollment of patients included individuals with OAB Wet (those with UUI, the involuntary loss of urine accompanied by urgency) and OAB Dry (those without UUI). A total of 1,518 patients were randomized across 215 study sites into one of three groups for a 12-week treatment period.
The study consisted of a Screening Period (1 to 5 weeks), a single-blind Run-in Period (2 weeks), a randomized double-blind Treatment Period (12 weeks), and a Follow-up Period (4 weeks).
Tolterodine ER 4 mg was the active control. […] Between the Baseline and Week 12 Visits, patients had study assessments at Week 4 and Week 8.
The Patient Voiding Diary was used by participants (via the eDiary or paper Diary) to record the frequency of daily OAB symptoms including all micturitions, urgency, incontinence, and main reason for incontinence by selecting the respective box for each symptom occurring during the course of a given day and night.
Urine volume data were collected separately by patients using the Urine Volume component of the eDiary, or the paper Urine Volume Chart. The Urine Volume Chart is a tool used in clinical practice and clinical investigation to assess voiding functions over a 24-hour period and is regarded as a useful instrument in the investigation of patients with voiding symptoms. Urine volume may be collected during any one (1) of the 7 Diary Days prior to the visit, and it should be recorded for ˜24 hours starting from the time the patient gets up for the day and continues until the time the patient gets up for the day on the next day.
For the purpose of this study, the number of micturitions was defined as the number of times a patient has voided in the toilet as indicated on the Patient Voiding Diary. Average daily micturitions were calculated using the daily entries in the Patient Voiding Diary, which was completed over the 7 days prior to each study visit. Average daily number of micturitions were calculated as the total number of micturitions that occurred on a Complete Diary Day divided by the number of Complete Diary Days in the Patient Voiding Diary. A complete diary day required confirmation by the patient in the Patient Voiding Diary that all voids and leakages had been recorded for the diary day. Baseline was defined as the average number of micturitions occurring during the last evaluable diary prior to the Baseline Visit.
The number of UUI episodes was defined as the number of times a patient had checked “urge” as the reason for accidental urine leakage. Average daily UUI episodes at each study visit were calculated in the same manner as described above for the micturition endpoint. The UUI endpoint were analyzed using only OAB Wet patients.
For the analysis of the co-primary endpoints (change from baseline in average number of daily micturitions at Week 12 and change from baseline in average number of daily urge urinary incontinence episodes at Week 12, and placebo adjustment of each), a mixed model for repeated measure (MMRM) with restricted maximum likelihood estimation was used. This model corrects for dropout and accounts for the fact that measurements taken on the same patient over time tend to be correlated by using all available information on patients within the same covariate set to derive an estimate of the treatment effect for a dropout-free population. The analysis model for each efficacy endpoint includes terms for treatment, visit, OAB Type (Wet vs Dry), Sex (Female vs Male), Region (US vs Rest of World), baseline score, and interaction of visit by treatment.
Primary inferences were drawn from treatment differences for the changes from baseline derived from the MMRM models at Week 12. As part of secondary objectives, the treatment differences for each post baseline visit were also derived using the same MMRM model. […]

[1] = No prior anticholinergic use during the prior 12 months
[2] = No prior mirabegron use during the prior 12 months
[3] = Overall, events of Events/Censored
[4] = Prior anticholinergic use during the prior 12 months
[5] = Prior mirabegron use during the prior 12 months
[6] = Week 2, events of Events/Censored
[7] = Week 4, events of Events/Censored

Cc1ccc(O)c([C@H](CCN(C(C)C)C(C)C)c2ccccc2)c1 [Tolterodine ER, tolterodine, reference compound]
Urgency 50% responders, Active - Placebo CMH Difference (baseline to Week 2): 2.8
Patients with at Least 50% Reduction in Urgency Episodes, Adjusted (%) (baseline to Week 4): 20.6%
Patients with at Least 50% Reduction in Urgency Episodes, Adjusted n (baseline to Week 4): 20
Patients with at Least 50% Reduction in Urgency Episodes, Unadjusted (%) (baseline to Week 4): 25.5%
Patients with at Least 50% Reduction in Urgency Episodes, Unadjusted n (baseline to Week 4): 25
Urgency 50% responders, Active - Placebo CMH Difference (baseline to Week 4): 3.5
Patients with at Least 50% Reduction in Urgency Episodes, Adjusted (%) (baseline to Week 8): 28.5%
Patients with at Least 50% Reduction in Urgency Episodes, Adjusted n (baseline to Week 8): 28
Patients with at Least 50% Reduction in Urgency Episodes, Unadjusted (%) (baseline to Week 8): 30.6%
Patients with at Least 50% Reduction in Urgency Episodes, Unadjusted n (baseline to Week 8): 30
Urgency 50% responders, Active - Placebo CMH Difference (baseline to Week 8): 8.7
Patients with at Least 50% Reduction in Urgency Episodes, Adjusted (%) (baseline to Week 12): 29.0%
Patients with at Least 50% Reduction in Urgency Episodes, Adjusted n (baseline to Week 12): 28
Patients with at Least 50% Reduction in Urgency Episodes, Unadjusted (%) (baseline to Week 12): 32.7%
Patients with at Least 50% Reduction in Urgency Episodes, Unadjusted n (baseline to Week 12): 32
Urgency 50% responders, Active - Placebo CMH Difference (baseline to Week 12): 5.8
Urgency Episodes, Week 12 CFB Mean (Males with BPH): −3.29
Urgency Episodes, Week 12 CFB Mean (Males without BPH): −2.32
Urgency Episodes, Week 12 CFB Mean (No Prior ACH Use in last 12 Mo.): −2.62
Urgency Episodes, Week 12 CFB Mean (No Prior B3 Agonist Use in last 12 Mo.): −2.56
Micturitions, 12-week change [1]: −1.8
UUI Episodes, 12-week change [1]: −1.9
Micturitions, 12-week change [2]: −1.8
UUI Episodes, 12-week change [2]: −1.8
Overall Time to First 50% Decrease in Urgency Episodes, 25th Percentile (Overall): 4.3 weeks
Overall Time to First 50% Decrease in Urgency Episodes, 50th Percentile (Overall): 12.6 weeks
Overall Time to First 50% Decrease in Urgency Episodes, Median (95% CI) (Overall): 12.6 (12.3 to 12.9) weeks
Overall Time to First 100% Decrease in UUI Episodes, 25th Percentile (Overall): 12.1 weeks
Overall Time to First 100% Decrease in UUI Episodes, 75th Percentile (Overall): 16.0 weeks
Overall Time to First 100% Decrease in UUI Episodes, Median (95% CI) (Overall): 13.1 (12.7 to 16.0) weeks
Urgency Episodes, Week 12 CFB Mean (Overall): −2.57
First 50% Decrease in Urgency Episodes, Events [3]: 187/230
First 100% Decrease in UUI Episodes, Events [3]: 93/226
Urgency Episodes, Week 12 CFB Mean (Prior ACH Use in last 12 Mo.): −2.23
Urgency Episodes, Week 12 CFB Mean (Prior B3 Agonist Use in last 12 Mo.): −2.72
Micturitions, 12-week change [4]: −1.52
UUI Episodes, 12-week change [4]: −0.98
Micturitions, 12-week change [5]: −1.30
UUI Episodes, 12-week change [5]: −0.65
Micturitions: LS Mean (95% CI) (Age <65 years): −0.2 (−0.6 to 0.2)
Micturitions: LS Mean (95% CI) (Age ≥65 years): −0.3 (−0.8 to 0.2)
Micturitions: LS Mean (95% CI) (Age ≥75 years (posthoc analysis)): −0.4 (−1.4 to 0.6)
Micturitions: LS Mean (95% CI) (Females): −0.3 (−0.7 to 0.0)
Micturitions: LS Mean (95% CI) (Males): 0.1 (−0.7 to 0.9)
Micturitions: LS Mean (95% CI) (Non-White): −0.1 (−0.8 to 0.6)
Micturitions: LS Mean (95% CI) (OAB Type: Dry): −0.3 (−1.0 to 0.3)
Micturitions: LS Mean (95% CI) (OAB Type: Wet): −0.3 (−0.6 to 0.1)
Micturitions: LS Mean (95% CI) (Overall): −0.3 (−0.6 to 0.1)
Micturitions: LS Mean (95% CI) (Region: Non-US): 0.4 (−0.6 to 1.4)
Micturitions: LS Mean (95% CI) (Region: US): −0.3 (−0.7 to 0.0)
Micturitions: LS Mean (95% CI) (White): −0.3 (−0.7 to 0.0)
Average Daily Number of Total Incontinence, Mean (SD) (Week 2): 2.75 (2.743)
Average daily number of urgency episodes, Mean (SD) (Week 2): 6.30 (3.989)
Average volume voided per micturition, Active - Placebo LS Mean Difference (Week 2): 10.2 mL
Change from Baseline in Average Daily Number of Total Incontinence, LS Mean (SE) (Week 2): −1.3 (0.15)
Change from baseline in average daily number of urgency episodes, LS Mean (Week 2): −1.5
Change from baseline in average volume voided per micturition, LS Mean (SE) (Week 2): 12.5 (3.20) mL
Estimated Incidence of Subjects with 50% Decrease from Baseline (urgency episodes) (Week 2): 18.0
Estimated Incidence of Subjects with 100% Decrease from Baseline (UUI episodes) (Week 2): 5.6
Total Incontinence, Active - Placebo LS Mean Difference (SE) (Week 2): −0.5 (0.15)
Urgency episodes, Active - Placebo LS Mean Difference (Week 2): −0.6
First 50% Reduction in Urgency Episodes, Events [6]: 75/342
First 100% Reduction in UUI Episodes, Events [6]: 18/301
Average volume voided per micturition, Week 2 Mean (SD) (Week 2, vibegron 75 mg, tolterodine ER 4 mg): 156.7 (71.23) mL
Average Daily Number of Total Incontinence, Mean (SD) (Week 4): 2.54 (2.784)
Average daily number of urgency episodes, Mean (SD) (Week 4): 6.00 (4.097)
Average volume voided per micturition, Active - Placebo LS Mean Difference (Week 4): 8.9 mL
Average volume voided per micturition, Week 4 Mean (SD) (Week 4): 160.2 (72.76) mL
Change from Baseline in Average Daily Number of Total Incontinence, LS Mean (SE) (Week 4): −1.6 (0.15)
Change from baseline in average daily number of urgency episodes, LS Mean (Week 4): −1.8
Change from baseline in average volume voided per micturition, LS Mean (SE) (Week 4): 13.3 (3.39) mL
Estimated Incidence of Subjects with 50% Decrease from Baseline (urgency episodes) (Week 4): 19.4
Estimated Incidence of Subjects with 100% Decrease from Baseline (UUI episodes) (Week 4): 7.6
Total Incontinence, Active - Placebo LS Mean Difference (SE) (Week 4): −0.5 (0.15)
Urgency episodes, Active - Placebo LS Mean Difference (Week 4): −0.7
First 50% Reduction in Urgency Episodes, Events [7]: 81/336
First 100% Reduction in UUI Episodes, Events [7]: 24/295
Average Daily Number of Total Incontinence, Mean (SD) (Week 8): 2.20 (2.673)
